Data as given in patent publication US7429659B2, “Furan compounds as histamine H3 modulators” (Janssen Pharmaceutica N.V., priority 2004, dated 2008).
pKi: −log10 of the molar value. Counter-ions that a name gives are not always drawn.

Target: T1, human histamine H3 receptor (Homo sapiens, UniProt Q9Y5N1)
T1 construct: One μg supercoiled H3 receptor cDNA was added to the cells; expressed in transfected cells; membranes prepared from cell pellets
Test: [3H]-N-Methylhistamine binding to membranes of histamine H3 receptor-expressing SK-N-MC cells
Settings: 0.8 nM [3H]-N-methylhistamine, 60 min at 25° C., SK-N-MC cell membranes; Ki=(IC50)/(1+([L]/(KD))
Experimental: Cells were grown to about 70% to 80% confluence and removed from the plate with trypsin and pelleted in a clinical centrifuge. […] One μg supercoiled H3 receptor cDNA was added to the cells and mixed gently. […] Colonies that survived selection were grown and tested. SK-N-MC cells were used because they give efficient coupling for inhibition of adenylate cyclase. The clones that gave the most robust inhibition of adenylate cyclase in response to histamine were used for further study.
Supernatants from an 800 g spin were collected and were recentrifuged at 30,000 g for 30 min. Pellets were re-homogenized in 50 mM Tris/5 mM EDTA (pH 7.4). Membranes were incubated with 0.8 nM [^3H]-N-methylhistamine plus/minus test compounds for 60 min at 25° C. and were harvested by rapid filtration over GF/C glass fiber filters (pretreated with 0.3% polyethylenimine) followed by four washes with buffer. Filters were added to 5 mL of scintillation cocktail, and the signal was then counted on a liquid scintillation counter.

T1 sequence (Q9Y5N1 whole entry): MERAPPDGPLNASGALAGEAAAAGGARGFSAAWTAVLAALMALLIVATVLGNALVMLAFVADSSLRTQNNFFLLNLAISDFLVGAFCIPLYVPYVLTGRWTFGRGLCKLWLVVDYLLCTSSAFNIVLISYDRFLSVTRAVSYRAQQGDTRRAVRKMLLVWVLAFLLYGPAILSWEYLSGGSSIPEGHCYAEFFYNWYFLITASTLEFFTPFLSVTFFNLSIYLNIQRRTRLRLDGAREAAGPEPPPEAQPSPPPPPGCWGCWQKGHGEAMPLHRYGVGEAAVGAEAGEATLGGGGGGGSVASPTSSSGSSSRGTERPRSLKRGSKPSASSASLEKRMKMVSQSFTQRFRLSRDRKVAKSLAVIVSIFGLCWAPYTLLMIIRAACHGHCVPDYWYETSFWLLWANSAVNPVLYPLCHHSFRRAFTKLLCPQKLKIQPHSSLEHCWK

pKi: 7.19
Compound: CC(C)N1CCN(C(=O)c2ccc(CN3CCC(F)CC3)o2)CC1 [Example 19, [5-(4-Fluoro-piperidin-1-ylmethyl)-furan-2-yl]-(4-isopropyl-piperazin-1-yl)-methanone, fumarate salt]
